Experimental data published in patent US12559492B2, “BRAF degraders” (C4 Therapeutics, Inc., priority 2020, dated 2026).

Molecular target: BRAF^V600E protein (Homo sapiens, UniProt P15056, V600E)
Assay: HiBiT cellular BRAF V600E degradation assay
Type: cell-based
Conditions: 24 h incubation; for DC50: A375.10 cells (HiBiT tag knocked in at N-terminal of BRAF V600E), concentration at which 50% of total cellular BRAF V600E is degraded; for Emax: A375.10 cells, Emax = amount of residual protein remaining in the cell after compound treatment, read-out: HiBit 24 h Emax
Source text: DMEM no-phenol red medium supplemented with L-glutamine was purchased from (Corning). Fetal bovine serum (FBS) was purchased from Gibco (Grand Island, NY, USA). Nano-Glo® HiBiT Lytic Assay Buffer & Reagents were purchased from Promega (Madison, WI, USA). […] Cell culture flasks and 384-well black flat-bottom polystyrene TC-treated microplates were acquired from Corning (Corning, NY, USA).
HiBiT Cellular BRAFv^600E Degradation Assay
Prior to the assay, the A375.10 cell line is maintained in DMEM no-phenol red medium supplemented with 10% fetal bovine serum (FBS). […] Briefly, test compounds were added to the 384-well plate from a top concentration of 10 μM with 11 half log dilutions of compound, plated in duplicate. Then, 30 uL of a suspension of A375.10 cell lines was dispensed into columns 1-24 of the 384-well plates at a cell density of 7500 cells per well. The plates were kept at 37° C. with 5% CO2 for the duration of the assay (6 or 24 hr). After the desired incubation time with compound, 30 uL of Nano-Glo® HiBiT Lytic Buffer containing LgBiT protein (diluted 1:100) and luminescence substrate (diluted 1:50) were added to the cells in columns 1-23 of the assay plate. The plate was the incubated for 30 min on the bench at room temperature. Finally, HiBiT luminescence signal was acquired on EnVision™ Multilabel Reader (PerkinElmer, Santa Clara, CA, USA).
Quantification of luminescence responses measured in the presence of compound were normalized to a high signal/no degradation control (untreated cells+lytic detection reagent) and a low signal/full degradation control (untreated cells, no lytic detection reagent). Data were analyzed with a 4-parameter logistic fit to generate sigmoidal dose-response curves. […] The Emax, or maximum effect of each compound, represents the amount of residual protein remaining in the cell following compound treatment.

Chain of BRAF^V600E protein (P15056 whole entry V600E): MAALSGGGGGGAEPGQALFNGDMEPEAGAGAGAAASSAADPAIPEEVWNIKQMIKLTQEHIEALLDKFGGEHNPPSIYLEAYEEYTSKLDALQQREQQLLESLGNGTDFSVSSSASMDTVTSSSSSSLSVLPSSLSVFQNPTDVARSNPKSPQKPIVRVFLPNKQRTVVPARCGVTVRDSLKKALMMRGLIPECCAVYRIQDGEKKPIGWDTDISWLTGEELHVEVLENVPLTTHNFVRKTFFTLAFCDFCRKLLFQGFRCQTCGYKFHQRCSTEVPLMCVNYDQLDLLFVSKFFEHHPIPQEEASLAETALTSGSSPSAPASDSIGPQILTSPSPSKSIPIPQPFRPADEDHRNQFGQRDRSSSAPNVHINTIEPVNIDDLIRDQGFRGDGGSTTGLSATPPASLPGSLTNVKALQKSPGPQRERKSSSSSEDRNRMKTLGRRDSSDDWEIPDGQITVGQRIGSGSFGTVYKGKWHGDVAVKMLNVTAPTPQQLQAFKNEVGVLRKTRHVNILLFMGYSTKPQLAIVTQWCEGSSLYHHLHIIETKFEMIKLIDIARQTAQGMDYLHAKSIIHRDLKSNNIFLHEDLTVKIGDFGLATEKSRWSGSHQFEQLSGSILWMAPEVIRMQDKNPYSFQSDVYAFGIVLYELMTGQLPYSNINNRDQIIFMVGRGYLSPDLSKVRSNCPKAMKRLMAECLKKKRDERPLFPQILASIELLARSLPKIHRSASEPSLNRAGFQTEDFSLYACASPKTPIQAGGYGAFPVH

SMILES | DC50 [nM] | Emax [%]
CCN(C)S(=O)(=O)Nc1ccc(F)c(C(=O)c2c[nH]c3ncc(-c4cnc(N5CCN(C(=O)CN6CCC(c7ccc(NC8CCC(=O)NC8=O)c(F)c7)CC6)CC5)nc4)cc23)c1F (centres unmarked) [Example 29, 5-[2-[4-[2-[4-[4-[(2,6-dioxo-3-piperidyl)amino]-3-fluoro-phenyl]-1-piperidyl]acetyl]piperazin-1-yl]pyrimidin-5-yl]-3-[3-[[ethyl(methyl)sulfamoyl]amino]-2,6-difluoro-benzoyl]-1H-pyrrolo[2,3-b]pyridine] | 2.76 | 7.67
CCN(C)S(=O)(=O)Nc1ccc(F)c(C(=O)c2c[nH]c3ncc(-c4cnc(N5CCN(C(=O)CN6CCC(c7ccc(NC8CCC(=O)NC8=O)cc7)C(F)(F)C6)CC5)nc4)cc23)c1F (centres unmarked) [Example 30, 5-[2-[4-[2-[4-[4-[(2,6-dioxo-3-piperidyl)amino]phenyl]-3,3-difluoro-1-piperidyl]acetyl]piperazin-1-yl]pyrimidin-5-yl]-3-[3-[[ethyl(methyl)sulfamoyl]amino]-2,6-difluoro-benzoyl]-1H-pyrrolo[2,3-b]pyridine] | 4.27 | 7.84
CCN(C)S(=O)(=O)Nc1ccc(F)c(C(=O)c2c[nH]c3ncc(-c4cnc(N5CCN(C(=O)CC6CCN(c7ccc(NC8CCC(=O)NC8=O)cc7)CC6)CC5)nc4)cc23)c1F (centres unmarked) [Example 31, 5-[2-[4-[2-[1-[4-[(2,6-dioxo-3-piperidyl)amino]phenyl]-4-piperidyl]acetyl]piperazin-1-yl]pyrimidin-5-yl]-3-[3-[[ethyl(methyl)sulfamoyl]amino]-2,6-difluoro-benzoyl]-1H-pyrrolo[2,3-b]pyridine] | 30 | 21.2
CCN(C)S(=O)(=O)Nc1ccc(F)c(C(=O)c2c[nH]c3ncc(-c4cnc(N5CCN(C(=O)CN6CCC(c7ccc(CN8CCC(=O)NC8=O)cc7)CC6)CC5)nc4)cc23)c1F [Example 32, 5-[2-[4-[2-[4-[4-[(2,4-dioxohexahydropyrimidin-1-yl)methyl]phenyl]-1-piperidyl]acetyl]piperazin-1-yl]pyrimidin-5-yl]-3-[3-[[ethyl(methyl)sulfamoyl]amino]-2,6-difluoro-benzoyl]-1H-pyrrolo[2,3-b]pyridine] | 35 | 10.6
CCN(C)S(=O)(=O)Nc1ccc(F)c(C(=O)c2c[nH]c3ncc(-c4cnc(N5CCN(C(=O)CN6CCC(c7ccc8c(c7)n(C)c(=O)n8C7CCC(=O)NC7=O)CC6)CC5)nc4)cc23)c1F (centres unmarked) [Example 33, 1-(2,6-dioxo-3-piperidyl)-5-[1-[2-[4-[5-[3-[3-[[ethyl(methyl)sulfamoyl]amino]-2,6-difluoro-benzoyl]-1H-pyrrolo[2,3-b]pyridin-5-yl]pyrimidin-2-yl]piperazin-1-yl]-2-oxo-ethyl]-4-piperidyl]-3-methyl-2-oxo-benzimidazole] | 2.51 | 19.2
CCN(C)S(=O)(=O)Nc1ccc(F)c(C(=O)c2c[nH]c3ncc(-c4cnc(N5CCN(C(=O)CN6CCC(c7ccc8c(N9CCC(=O)NC9=O)nn(C)c8c7)CC6)CC5)nc4)cc23)c1F [Example 34, 3-(2,4-dioxohexahydropyrimidin-1-yl)-6-[1-[2-[4-[5-[3-[3-[[ethyl(methyl)sulfamoyl]amino]-2,6-difluoro-benzoyl]-1H-pyrrolo[2,3-b]pyridin-5-yl]pyrimidin-2-yl]piperazin-1-yl]-2-oxo-ethyl]-4-piperidyl]-1-methyl-indazole] | 2.52 | 8.14
CCN(C)S(=O)(=O)Nc1ccc(F)c(C(=O)c2c[nH]c3ncc(-c4cnc(N5CCN(C(=O)CN6CCC(N7CCN(C8CCC(=O)NC8=O)C(=O)C7)CC6)CC5)nc4)cc23)c1F (centres unmarked) [Example 37, 5-[2-[4-[2-[4-[4-(2,6-dioxo-3-piperidyl)-3-oxo-piperazin-1-yl]-1-piperidyl]acetyl]piperazin-1-yl]pyrimidin-5-yl]-3-[3-[[ethyl(methyl)sulfamoyl]amino]-2,6-difluoro-benzoyl]-1H-pyrrolo[2,3-b]pyridine] | 17.2 | 9.14
